Experimental data: patent US20110059869A1, “Method for Increasing Enzymatic Reactivity” (RIKEN, priority 2008, published 2011)

Key:
λ phage cDNA library = assay: Preparation of a λ phage cDNA library, titer from plaques; settings: samples prepared under trehalose (+) 0.6 M vs trehalose (−)
Description: Double-stranded cDNA/RNA hybrid samples that had been immobilized on streptoavidin beads and synthesized under trehalose (+) and trehalose (−) conditions were employed to prepare a λ phage cDNA library. Following synthesis of double-stranded cDNA, the beads were washed with blunting buffer (T4 DNA polymerase buffer). Blunting reaction solution (1× T4 DNA polymerase buffer, 0.6 M trehalose, 0.1 mM dNTP mix, T4 DNA polymerase 5 units) was added and the mixture was incubated for 20 minutes at 12° C. Following the reaction, the beads were washed three times with 0.1× TE, and then washed one more time with 1× ligation buffer. Ligation reaction solution (1× T4 DNA ligation buffer, 0.6 M trehalose, 5′ end BamHI overhang adapter 2 ug, T4 DNA ligase 800 units) was added and the mixture was reacted overnight at 16° C. The beads were washed three times with 0.1× TE and then washed once with 1× XhoI. Restriction enzyme XhoI reaction solution (1× XhoI buffer, 0.6 M trehalose, XhoI 40 units) was added and the mixture was incubated for three hours at 37° C. The beads were recovered with a magnetic stand and the supernatant containing the cDNA that had been released by XhoI cutting was separated. […] A 10 uL quantity and a 100 uL quantity were admixed to the C600/MgSO4 suspensions to infect them with phage. […] The plaques that appeared were counted and the titer was calculated (Scheme 3).

[1] = tested on: ligation enzymatic reaction solution of a SOLID system 2.0; assay: Sequencing reaction in a SOLID sequencing system; assay type: biochemical; settings: 0.3 M trehalose vs none
Description: D(+)-trehalose was added to the ligation enzymatic reaction solution of a SOLID system 2.0 and the effects were measured. The experiment was conducted at a final D(+)-trehalose concentration of 0.3 M. The noise to signal ratio (N/S ratio) of each cycle was employed for comparison. The N/S ratio was obtained by dividing the second brightest fluorescence intensity by the brightest fluorescence intensity.
The D(+)-trehalose employed was D(+)-trehalose dihydrate (201-02253 reagent grade) (Wako). A SOLiD™ fragment library sequencing kit v2 (4400466) was employed for sequencing with the SOLID system (Applied Biosystems). The sample employed as a SOLiD™ DH10B fragment library control kit (4391889).
Probe Mixes A and B and bridge probe, prepared with the reagents contained in a SOLiD™ fragment library sequence kit v2 (4400466) and adjusted to a D(+)-trehalose (90208 BioChemika, 99.5% (HPLC)) (Fluka) concentration of 1.7 M, were added to each sequence primer in the quantities indicated below.
The operation was conducted according to the manufacturer's protocol following addition.

DNA polymerase = assay: 454 sequencing system, emulsion PCR on beads; assay type: biochemical
Description: In the 454 sequencing system (Scheme 10), a DNA template was adsorbed onto spherical beads, immobilized, and subjected to enveloped amplification in a water-in-oil emulsion (emulsion PCR). Accordingly, the change in the sequencing analysis level when trehalose was added in emulsion PCR was examined.
In emulsion PCR, DNA is bonded by complementarily interaction with oligoprimer immobilized on beads and enveloped in a water-in-oil emulsion to form microreactors each comprised of a single bead and a single DNA fragment. An amplification reaction based on the DNA polymerase results in the amplification of each DNA fragment into several million copies per bead. Trehalose was added to a final concentration of 0.6 M to the reaction solution and the amplification reaction was conducted to examine the effect on the sequence analysis results (Scheme 11).
The samples employed were DNA fragments that had been obtained by PCR amplification of cDNA obtained by reverse transcription of short RNA (FIG. 11). The results obtained by this reaction are shown in FIGS. 12, 13, and 14, as well as in Table 2.
In the 454 sequencing system described in 11 above, trehalose was added to a final concentration of […] to the reaction solution, an amplification reaction was conducted, and the effect on the level of sequencing was examined.

[2] = State of streptavidin bead reaction solution during enzymatic reaction; assay type: physicochemical; settings: 0.6 M additive; extended / three hours restriction enzyme reaction
Description: Thus, with no nonuniformity in enzymatic activity, the various enzymatic reactions were promoted and the quantity of target DNA recovered increased.
This was attributed to characteristics such as the viscosity and diffusing effect of trehalose or sorbitol.

restriction enzyme PstI = assay: PstI cleavage reaction on a horizontal plate surface (DNA fragment III); assay type: biochemical; settings: horizontal plates, 0.6 M trehalose vs none
Description: Biotin-labeled DNA fragment III (Seq. ID No. 6, Scheme 4) was cleaved at the restriction enzyme PstI site on a horizontal streptavidin coated plate surface and the 104 by DNA fragment released was examined. To the DNA fragment III (500 ng) was admixed an equal volume of 2× binding buffer. The mixture was added to the wells of a plate that had been washed with 1× binding buffer and stirred and adsorbed while being gently vibrated for 15 minutes at room temperature. The supernatant was removed, washed three times with 1× binding buffer, and washed once with 1× PstI buffer. Two types of reaction solution (1× PstI buffer, 1× BSA restriction enzyme 40 units) were prepared: a trehalose (+) system to which D(+)-trehalose was added to a final concentration of 0.6 M, and a trehalose (−) system to which no trehalose was added. Each of the reaction solutions was added to wells that had been washed, and then reacted for three hours at 37° C. Cleavage was conducted with restriction enzyme. The supernatant containing the DNA fragments that had been released was recovered, reacted with proteinase K, treated with phenol chloroform, and precipitated from ethanol. The precipitate of DNA fragments obtained was dissolved in 1× TE (pH 7.5) and analyzed with Bioanalyzer DNA 1000 assay (Agilent Technologies).

[3] = 0.3 M trehalose in emulsion PCR vs none
[4] = 0.6 M trehalose in emulsion PCR
[5] = trehalose 0.6 M in emulsion PCR, Region 2

**Q.** For `OC[C@H]1O[C@H](O[C@H]2O[C@H](CO)[C@@H](O)[C@H](O)[C@H]2O)[C@H](O)[C@@H](O)[C@@H]1O` [trehalose, D(+)-trehalose], which “titer of the phage library” value (λ phage cDNA library) is on record?
**A.** Its value is “clearly better results”.

**Q.** And the “noise to signal ratio (N/S ratio) with each cycle” value [1]?
**A.** Its value is “reduced the rise in noise”.

**Q.** And the “long fragments (sequence length)” value (DNA polymerase; [3])?
**A.** The value was “increase in long fragments”.

**Q.** What about the number of sequences (DNA polymerase; [3]) of the same molecule?
**A.** Its number of sequences is “increased the number of sequences”.

**Q.** What about the “short fragments (sequence length)” value (DNA polymerase; [3]) of the same molecule?
**A.** The value was “reduction in short fragments”.

**Q.** And the DNA amplification wells (DNA polymerase; 0.6 M trehalose (+) compared to trehalose (−))?
**A.** The DNA amplification wells was “increasing the DNA amplification wells”.

**Q.** And the “number of sequences and size of the regions that were decoded” value (DNA polymerase; 0.6 M trehalose (+) relative to trehalose (−))?
**A.** Its value is “increasing the number of sequences and the size of the regions that were decoded”.

**Q.** And the “number of sequences read in sample DNA, increase relative to no trehalose” value (DNA polymerase; [4])?
**A.** The value was “about 1.6 fold”.

**Q.** And the “target regions contained in DNA fragments (tags) analyzed” value (DNA polymerase; [4])?
**A.** Its value is “more target regions were contained”.

**Q.** What about the “Keypass Wells” value (DNA polymerase; [5]) of the same molecule?
**A.** The value was 341,546.

**Q.** And the “Passed Filter Wells” value (DNA polymerase; [5])?
**A.** The value was 207,398.

**Q.** And the “Raw Wells” value (DNA polymerase; [5])?
**A.** The value was 364,898.

**Q.** And the “uniformity of beads in the reaction solution” value [2]?
**A.** Its value is “maintaining better uniformity in the reaction solution”.

**Q.** What about the “yield of released DNA fragment” value (restriction enzyme PstI) of the same molecule?
**A.** Its value is “higher yield”.
